Assay results taken from the NIST ThermoML archive (doi:10.1016/j.jct.2011.11.021).
Numbers after ± are expanded uncertainties.

Test: activity coefficient (dimensionless); of the first substance listed, at infinite dilution; xn = mol fraction of the nth substance listed
Conditions: Liquid, Chromatography, x1 = 0

| Structure (SMILES) | activity coefficient (318.15 K) | activity coefficient (328.15 K) | activity coefficient (338.15 K) | activity coefficient (348.15 K) | activity coefficient (358.15 K) | activity coefficient (368.15 K) |
| --- | --- | --- | --- | --- | --- | --- |
| CCCCCCCCCC [decane] + COCC[N+]1(C)CCOCC1.O=S(=O)([N-]S(=O)(=O)C(F)(F)F)C(F)(F)F | 192 ± 13 | 165 ± 11 | 145 ± 10 | 126 ± 9 | 111 ± 8 | 98.2 ± 6.7 |
| CCOCC [diethyl ether] + COCC[N+]1(C)CCOCC1.O=S(=O)([N-]S(=O)(=O)C(F)(F)F)C(F)(F)F | 3.49 ± 0.24 | 3.46 ± 0.24 | 3.44 ± 0.23 | 3.41 ± 0.23 | 3.39 ± 0.23 | 3.37 ± 0.23 |
| CC(C)OC(C)C [diisopropyl ether] + COCC[N+]1(C)CCOCC1.O=S(=O)([N-]S(=O)(=O)C(F)(F)F)C(F)(F)F | 10.1 ± 0.7 | 9.8 ± 0.67 | 9.55 ± 0.65 | 9.26 ± 0.63 | 8.98 ± 0.61 | 8.75 ± 0.6 |
| CCCOCCC [dipropyl ether] + COCC[N+]1(C)CCOCC1.O=S(=O)([N-]S(=O)(=O)C(F)(F)F)C(F)(F)F | 10.7 ± 0.7 | 10.3 ± 0.7 | 9.92 ± 0.68 | 9.56 ± 0.65 | 9.2 ± 0.63 | 8.97 ± 0.61 |
| CCO [ethanol] + COCC[N+]1(C)CCOCC1.O=S(=O)([N-]S(=O)(=O)C(F)(F)F)C(F)(F)F | 1.77 ± 0.12 | 1.61 ± 0.11 | 1.49 ± 0.1 | 1.36 ± 0.09 | 1.26 ± 0.08 | 1.17 ± 0.07 |
| CCOC(C)=O [ethyl acetate] + COCC[N+]1(C)CCOCC1.O=S(=O)([N-]S(=O)(=O)C(F)(F)F)C(F)(F)F | 0.984 ± 0.062 | 1 ± 0.06 | 1.02 ± 0.06 | 1.03 ± 0.06 | 1.04 ± 0.07 | 1.06 ± 0.07 |
| CCc1ccccc1 [ethylbenzene] + COCC[N+]1(C)CCOCC1.O=S(=O)([N-]S(=O)(=O)C(F)(F)F)C(F)(F)F | 3.27 ± 0.22 | 3.21 ± 0.22 | 3.16 ± 0.22 | 3.1 ± 0.21 | 3.04 ± 0.21 | 2.99 ± 0.2 |
| CCCCCCC [heptane] + COCC[N+]1(C)CCOCC1.O=S(=O)([N-]S(=O)(=O)C(F)(F)F)C(F)(F)F | 54.4 ± 3.7 | 48.7 ± 3.3 | 43.8 ± 3 | 39.7 ± 2.7 | 36.2 ± 2.5 | 33.1 ± 2.3 |
| C=CCCCC [hex-1-ene] + COCC[N+]1(C)CCOCC1.O=S(=O)([N-]S(=O)(=O)C(F)(F)F)C(F)(F)F | 16.5 ± 1.1 | 15.3 ± 1 | 14.3 ± 1 | 13.6 ± 0.9 | 12.9 ± 0.9 | 12.1 ± 0.8 |
| CCCCCC [hexane] + COCC[N+]1(C)CCOCC1.O=S(=O)([N-]S(=O)(=O)C(F)(F)F)C(F)(F)F | 36.1 ± 2.5 | 32.6 ± 2.2 | 29.8 ± 2 | 27.2 ± 1.9 | 25 ± 1.7 | 23.1 ± 1.6 |
| CO [methanol] + COCC[N+]1(C)CCOCC1.O=S(=O)([N-]S(=O)(=O)C(F)(F)F)C(F)(F)F | 1.28 ± 0.08 | 1.18 ± 0.08 | 1.1 ± 0.07 | 1.02 ± 0.06 | 0.95 ± 0.06 | 0.897 ± 0.057 |
| CCCC(=O)OC [methyl butanoate] + COCC[N+]1(C)CCOCC1.O=S(=O)([N-]S(=O)(=O)C(F)(F)F)C(F)(F)F | 1.42 ± 0.09 | 1.44 ± 0.09 | 1.45 ± 0.1 | 1.45 ± 0.1 | 1.46 ± 0.1 | 1.48 ± 0.1 |
| COC(C)=O [methyl ethanoate] + COCC[N+]1(C)CCOCC1.O=S(=O)([N-]S(=O)(=O)C(F)(F)F)C(F)(F)F | 0.684 ± 0.046 | 0.7 ± 0.047 | 0.714 ± 0.048 | 0.729 ± 0.048 | 0.74 ± 0.049 | 0.754 ± 0.05 |
| CCC(=O)OC [methyl propanoate] + COCC[N+]1(C)CCOCC1.O=S(=O)([N-]S(=O)(=O)C(F)(F)F)C(F)(F)F | 0.949 ± 0.06 | 0.966 ± 0.061 | 0.982 ± 0.062 | 0.998 ± 0.062 | 1.01 ± 0.06 | 1.03 ± 0.06 |
| CC1CCCCC1 [methylcyclohexane] + COCC[N+]1(C)CCOCC1.O=S(=O)([N-]S(=O)(=O)C(F)(F)F)C(F)(F)F | 27.6 ± 1.9 | 24.8 ± 1.7 | 22.8 ± 1.6 | 20.9 ± 1.4 | 19.2 ± 1.3 | 17.7 ± 1.2 |
| CCCCCCCCC [nonane] + COCC[N+]1(C)CCOCC1.O=S(=O)([N-]S(=O)(=O)C(F)(F)F)C(F)(F)F | 125 ± 9 | 108 ± 7 | 95.8 ± 6.6 | 85.6 ± 5.9 | 76.3 ± 5.2 | 68.7 ± 4.7 |
| C=CCCCCCC [oct-1-ene] + COCC[N+]1(C)CCOCC1.O=S(=O)([N-]S(=O)(=O)C(F)(F)F)C(F)(F)F | 38.6 ± 2.6 | 34.9 ± 2.4 | 32.5 ± 2.2 | 30.1 ± 2.1 | 27.5 ± 1.9 | 25.9 ± 1.8 |
| CCCCCCCC [octane] + COCC[N+]1(C)CCOCC1.O=S(=O)([N-]S(=O)(=O)C(F)(F)F)C(F)(F)F | 82.1 ± 5.6 | 71.6 ± 4.9 | 64.6 ± 4.4 | 58.4 ± 4 | 51.7 ± 3.5 | 47.3 ± 3.2 |
| CCCC(C)=O [pentan-2-one] + COCC[N+]1(C)CCOCC1.O=S(=O)([N-]S(=O)(=O)C(F)(F)F)C(F)(F)F | 0.88 ± 0.056 | 0.89 ± 0.057 | 0.9 ± 0.057 | 0.91 ± 0.058 | 0.918 ± 0.058 | 0.925 ± 0.058 |
| CCC(=O)CC [pentan-3-one] + COCC[N+]1(C)CCOCC1.O=S(=O)([N-]S(=O)(=O)C(F)(F)F)C(F)(F)F | 0.895 ± 0.057 | 0.912 ± 0.058 | 0.927 ± 0.059 | 0.941 ± 0.059 | 0.952 ± 0.06 | 0.967 ± 0.061 |
| CCCCC [pentane] + COCC[N+]1(C)CCOCC1.O=S(=O)([N-]S(=O)(=O)C(F)(F)F)C(F)(F)F | 25 ± 1.7 | 22.5 ± 1.5 | 20.6 ± 1.4 | 19 ± 1.3 | 17.4 ± 1.2 | 16.3 ± 1.1 |
| CCCO [propan-1-ol] + COCC[N+]1(C)CCOCC1.O=S(=O)([N-]S(=O)(=O)C(F)(F)F)C(F)(F)F | 2.39 ± 0.16 | 2.14 ± 0.15 | 1.96 ± 0.13 | 1.79 ± 0.12 | 1.63 ± 0.11 | 1.52 ± 0.1 |
| CC(C)O [propan-2-ol] + COCC[N+]1(C)CCOCC1.O=S(=O)([N-]S(=O)(=O)C(F)(F)F)C(F)(F)F | 2.17 ± 0.15 | 1.95 ± 0.13 | 1.79 ± 0.12 | 1.63 ± 0.11 | 1.5 ± 0.1 | 1.4 ± 0.09 |
| c1ccncc1 [pyridine] + COCC[N+]1(C)CCOCC1.O=S(=O)([N-]S(=O)(=O)C(F)(F)F)C(F)(F)F | 0.64 ± 0.044 | 0.644 ± 0.044 | 0.648 ± 0.044 | 0.651 ± 0.045 | 0.654 ± 0.045 | 0.658 ± 0.045 |
| C=Cc1ccccc1 [styrene] + COCC[N+]1(C)CCOCC1.O=S(=O)([N-]S(=O)(=O)C(F)(F)F)C(F)(F)F | 1.77 ± 0.12 | 1.77 ± 0.12 | 1.76 ± 0.12 | 1.76 ± 0.12 | 1.76 ± 0.12 | 1.76 ± 0.12 |
| C1CCOC1 [tetrahydrofuran] + COCC[N+]1(C)CCOCC1.O=S(=O)([N-]S(=O)(=O)C(F)(F)F)C(F)(F)F | 0.858 ± 0.055 | 0.867 ± 0.055 | 0.873 ± 0.056 | 0.882 ± 0.056 | 0.888 ± 0.057 | 0.895 ± 0.057 |
| c1ccsc1 [thiophene] + COCC[N+]1(C)CCOCC1.O=S(=O)([N-]S(=O)(=O)C(F)(F)F)C(F)(F)F | 1.09 ± 0.07 | 1.08 ± 0.07 | 1.08 ± 0.07 | 1.08 ± 0.07 | 1.08 ± 0.07 | 1.08 ± 0.07 |
| Cc1ccccc1 [toluene] + COCC[N+]1(C)CCOCC1.O=S(=O)([N-]S(=O)(=O)C(F)(F)F)C(F)(F)F | 2.01 ± 0.14 | 2.01 ± 0.14 | 2 ± 0.14 | 1.99 ± 0.14 | 1.98 ± 0.13 | 1.97 ± 0.13 |
| O [water] + COCC[N+]1(C)CCOCC1.O=S(=O)([N-]S(=O)(=O)C(F)(F)F)C(F)(F)F | 2.49 ± 0.17 | 2.17 ± 0.15 | 1.94 ± 0.13 | 1.73 ± 0.12 | 1.55 ± 0.1 | 1.41 ± 0.09 |
